Measurements from US6875578B2, “System for cell-based screening” (priority 1997, dated 2005).

Experiments:
[1] = system: p38 MAPK and NF-κB pathways; assay: Dual labeling assay of the p38 MAPK and NF-κB pathways; assay type: cell-based; conditions: added alone; two different cell types
From the text: The assay we present here measures, as one of its parameters, p38 activation using immunolocalization of the phosphorylated form of p38 in toxin-treated cells. The assay was developed to be flexible enough to include the simultaneous measurement of other parameters within the same individual cells. Because the signal transduction pathway mediated by the transcription factor NF-κB is also known to be involved in the cell stress response, we included the activation of NF-κB as a second parameter in the same assay.
Multiple cell types, model toxins, and antibodies were tested, and significant stimulation of both pathways was measured in a high-content mode. The phospho-p38 antibodies used in this study were purchased from Sigma Chemical Company (St. Louis, Mo.). We report that at least two cell stress signaling pathways can not only be measured simultaneously, but are differentially responsive to classes of model toxins.

[2] = system: microtubule arrays (tubulin-GFP chimera); assay: Microtubule disruption assay, LLCPK cells with tubulin-GFP biosensor; assay type: cell-based, pig; conditions: 10-500 nM, 12 hour time point
Description: For microtubule disruption assays, LLCPK cells stably transfected with a tubulin-GFP biosensor plasmid were plated on 96 well cell culture dishes at 50-60% confluence and cultured overnight at 37° C., 5% CO2. […] The cells were then observed with the cell screening system described above, at a 12 hour time point.

Row | Compound | differential response of the p38 MAPK and NF-κB pathways [1] | Response of microtubule arrays [2]
1 | COc1ccc(C[C@H]2NC[C@H](O)[C@H]2OC(C)=O)cc1 [Anisomycin] | activators of specific pathways | –
2 | C=CC[C@@H](CC/C(C)=C/C=C/CC/C=C\[C@@H]1CSC([C@@H]2C[C@@H]2C)=N1)OC [Curacin A] | – | Destabilization
3 | COC(=O)Nc1nc2ccc(C(=O)c3cccs3)cc2[nH]1 [Nocodazole] | – | Destabilization
4 | CC[C@]1(O)C[C@@H]2CN(CCc3c([nH]c4ccccc34)[C@@](C(=O)OC)(c3cc4c(cc3OC)N(C)[C@H]3[C@@](O)(C(=O)OC)[C@H](OC(C)=O)[C@]5(CC)C=CCN6CC[C@]43[C@@H]65)C2)C1 [Vinblastine] | – | Destabilization
